Experimental data as given in PubChem BioAssay AID1963447 (Molecular Pharmacology Branch, DTP, NCI, 2024).

System: 885512-296-R-J2-PDC complex spheroid growth, % test/control
Experiment: Anticancer human tumor 885512-296-R-J2-PDC patient-derived breast carcinoma cell line growth inhibition [Asc]
Conditions: for IC50: curve of first compound; for viability, T/C: stronger effect = lower value
Procedure, shortened: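 Complex spheroids combining tumor cells with HUVEC endothelial cells and human MSCs, at 37 degrees C, 5% CO2; agents tested alone or combined, half-log dilutions from at or near clinical Cmax, or 10 microM if Cmax unknown.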

[1] = second compound 0.1 µM, first compound 0.00316 µM
[2] = second compound 0.1 µM, first compound 0.01 µM
[3] = second compound 0.1 µM, first compound 0.0316 µM
[4] = second compound 0.1 µM, first compound 0.1 µM
[5] = second compound 0.1 µM, first compound 0.316 µM
[6] = second compound 0.1 µM, first compound 1 µM
[7] = second compound 0.316 µM, first compound 0.00316 µM
[8] = second compound 0.316 µM, first compound 0.01 µM
[9] = second compound 0.316 µM, first compound 0.0316 µM
[10] = second compound 0.316 µM, first compound 0.1 µM
[11] = second compound 0.316 µM, first compound 0.316 µM
[12] = second compound 0.316 µM, first compound 1 µM
[13] = second compound 1 µM, first compound 0.00316 µM
[14] = second compound 1 µM, first compound 0.01 µM
[15] = second compound 1 µM, first compound 0.0316 µM
[16] = second compound 1 µM, first compound 0.1 µM
[17] = second compound 1 µM, first compound 0.316 µM
[18] = second compound 1 µM, first compound 1 µM
[19] = second compound 3.16 µM, first compound 0.00316 µM
[20] = second compound 3.16 µM, first compound 0.01 µM
[21] = second compound 3.16 µM, first compound 0.0316 µM
[22] = second compound 3.16 µM, first compound 0.1 µM
[23] = second compound 3.16 µM, first compound 0.316 µM
[24] = second compound 3.16 µM, first compound 1 µM
[25] = second compound 10 µM, first compound 0.00316 µM
[26] = second compound 10 µM, first compound 0.01 µM
[27] = second compound 10 µM, first compound 0.0316 µM
[28] = second compound 10 µM, first compound 0.1 µM
[29] = second compound 10 µM, first compound 0.316 µM
[30] = second compound 10 µM, first compound 1 µM
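Note: spheroids exposed to compounds for seven days.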
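Throughout, for viability, T/C: 100% = DMSO vehicle control wells.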

CCN1CCN(Cc2ccc(Nc3ncc(F)c(-c4cc(F)c5nc(C)n(C(C)C)c5c4)n3)nc2)CC1 + Cc1c(S(C)(=O)=O)c(-c2cc(F)cc(N3CCN(c4ccc(NS(=O)(=O)c5ccc(NC(CCN6CCC(C(=O)OCCCP(=O)(O)O)CC6)CSc6ccccc6)c(S(=O)(=O)C(F)(F)F)c5)cc4)CC3)c2)c(-c2ccc(Cl)cc2)n1C(C)C
IC50 (second compound 0.1 µM): > 1000 nM
IC50 (second compound 0.316 µM): > 1000 nM
IC50 (second compound 1 µM): > 1000 nM
IC50 (second compound 3.16 µM): > 1000 nM
IC50 (second compound 10 µM): > 1000 nM
viability, T/C [1]: 85.9%
viability, T/C [2]: 104%
viability, T/C [3]: 89.3%
viability, T/C [4]: 71.7%
viability, T/C [5]: 65.5%
viability, T/C [6]: 61%
viability, T/C [7]: 102%
viability, T/C [8]: 89.9%
viability, T/C [9]: 83.3%
viability, T/C [10]: 68.3%
viability, T/C [11]: 66.1%
viability, T/C [12]: 65%
viability, T/C [13]: 92.6%
viability, T/C [14]: 91.5%
viability, T/C [15]: 76%
viability, T/C [16]: 76.3%
viability, T/C [17]: 67.8%
viability, T/C [18]: 69.1%
viability, T/C [19]: 90.8%
viability, T/C [20]: 83.5%
viability, T/C [21]: 92.6%
viability, T/C [22]: 89%
viability, T/C [23]: 72.5%
viability, T/C [24]: 61.9%
viability, T/C [25]: 118%
viability, T/C [26]: 116%
viability, T/C [27]: 108%
viability, T/C [28]: 126%
viability, T/C [29]: 125%
viability, T/C [30]: 113%

Cn1ncnc1[C@H]1c2n[nH]c(=O)c3cc(F)cc(c23)N[C@@H]1c1ccc(F)cc1 + Cc1c(S(C)(=O)=O)c(-c2cc(F)cc(N3CCN(c4ccc(NS(=O)(=O)c5ccc(NC(CCN6CCC(C(=O)OCCCP(=O)(O)O)CC6)CSc6ccccc6)c(S(=O)(=O)C(F)(F)F)c5)cc4)CC3)c2)c(-c2ccc(Cl)cc2)n1C(C)C
IC50 (second compound 0.1 µM): 17.2 nM
IC50 (second compound 0.316 µM): 26.4 nM
IC50 (second compound 1 µM): 17.2 nM
IC50 (second compound 3.16 µM): 21.5 nM
IC50 (second compound 10 µM): 28.7 nM
viability, T/C (second compound 0.1 µM, first compound 0.000316 µM): 85.5%
viability, T/C (second compound 0.1 µM, first compound 0.001 µM): 78.4%
viability, T/C [1]: 66.3%
viability, T/C [2]: 53.1%
viability, T/C [3]: 47.5%
viability, T/C [4]: 29.1%
viability, T/C (second compound 0.316 µM, first compound 0.000316 µM): 105%
viability, T/C (second compound 0.316 µM, first compound 0.001 µM): 77.6%
viability, T/C [7]: 85.9%
viability, T/C [8]: 58.5%
viability, T/C [9]: 54.2%
viability, T/C [10]: 26.6%
viability, T/C (second compound 1 µM, first compound 0.000316 µM): 87.1%
viability, T/C (second compound 1 µM, first compound 0.001 µM): 91.1%
viability, T/C [13]: 78.4%
viability, T/C [14]: 55.3%
viability, T/C [15]: 44.1%
viability, T/C [16]: 27.9%
viability, T/C (second compound 3.16 µM, first compound 0.000316 µM): 88%
viability, T/C (second compound 3.16 µM, first compound 0.001 µM): 77.1%
viability, T/C [19]: 77.8%
viability, T/C [20]: 66.2%
viability, T/C [21]: 41.5%
viability, T/C [22]: 27.9%
viability, T/C (second compound 10 µM, first compound 0.000316 µM): 120%
viability, T/C (second compound 10 µM, first compound 0.001 µM): 97.9%
viability, T/C [25]: 82.8%
viability, T/C [26]: 73%
viability, T/C [27]: 47.2%
viability, T/C [28]: 27.9%

O=C(c1cc(Cc2n[nH]c(=O)c3ccccc23)ccc1F)N1CCN(C(=O)C2CC2)CC1 + Cc1c(S(C)(=O)=O)c(-c2cc(F)cc(N3CCN(c4ccc(NS(=O)(=O)c5ccc(NC(CCN6CCC(C(=O)OCCCP(=O)(O)O)CC6)CSc6ccccc6)c(S(=O)(=O)C(F)(F)F)c5)cc4)CC3)c2)c(-c2ccc(Cl)cc2)n1C(C)C
IC50 (second compound 0.1 µM): 4750 nM
IC50 (second compound 0.316 µM): 4350 nM
IC50 (second compound 1 µM): 3760 nM
IC50 (second compound 3.16 µM): 3670 nM
IC50 (second compound 10 µM): 3290 nM
viability, T/C [3]: 90.8%
viability, T/C [4]: 105%
viability, T/C [5]: 95.5%
viability, T/C [6]: 91%
viability, T/C (second compound 0.1 µM, first compound 3.16 µM): 67.9%
viability, T/C (second compound 0.1 µM, first compound 10 µM): 17.4%
viability, T/C [9]: 96.4%
viability, T/C [10]: 96.7%
viability, T/C [11]: 104%
viability, T/C [12]: 96.6%
viability, T/C (second compound 0.316 µM, first compound 3.16 µM): 64.2%
viability, T/C (second compound 0.316 µM, first compound 10 µM): 13.1%
viability, T/C [15]: 83.3%
viability, T/C [16]: 98.8%
viability, T/C [17]: 104%
viability, T/C [18]: 92%
viability, T/C (second compound 1 µM, first compound 3.16 µM): 56.8%
viability, T/C (second compound 1 µM, first compound 10 µM): 11.7%
viability, T/C [21]: 101%
viability, T/C [22]: 106%
viability, T/C [23]: 99%
viability, T/C [24]: 88.1%
viability, T/C (second compound 3.16 µM, first compound 3.16 µM): 55.7%
viability, T/C (second compound 3.16 µM, first compound 10 µM): 11.7%
viability, T/C [27]: 125%
viability, T/C [28]: 113%
viability, T/C [29]: 97.5%
viability, T/C [30]: 90.3%
viability, T/C (second compound 10 µM, first compound 3.16 µM): 47.5%
viability, T/C (second compound 10 µM, first compound 10 µM): 9.81%

O=C(c1ccc(F)c(F)c1Nc1ccc(I)cc1F)N1CC(O)([C@@H]2CCCCN2)C1 + Cc1c(S(C)(=O)=O)c(-c2cc(F)cc(N3CCN(c4ccc(NS(=O)(=O)c5ccc(NC(CCN6CCC(C(=O)OCCCP(=O)(O)O)CC6)CSc6ccccc6)c(S(=O)(=O)C(F)(F)F)c5)cc4)CC3)c2)c(-c2ccc(Cl)cc2)n1C(C)C
IC50 (second compound 0.1 µM): 121 nM
IC50 (second compound 0.316 µM): 94.1 nM
IC50 (second compound 1 µM): 89 nM
IC50 (second compound 3.16 µM): 77.9 nM
IC50 (second compound 10 µM): 452 nM
viability, T/C [1]: 77.6%
viability, T/C [2]: 82.5%
viability, T/C [3]: 69.9%
viability, T/C [4]: 50.8%
viability, T/C [5]: 34%
viability, T/C [6]: 13.1%
viability, T/C [7]: 94%
viability, T/C [8]: 88.8%
viability, T/C [9]: 63.6%
viability, T/C [10]: 51.9%
viability, T/C [11]: 28.7%
viability, T/C [12]: 13.7%
viability, T/C [13]: 86.9%
viability, T/C [14]: 68.7%
viability, T/C [15]: 68.1%
viability, T/C [16]: 48.4%
viability, T/C [17]: 30.2%
viability, T/C [18]: 12.2%
viability, T/C [19]: 102%
viability, T/C [20]: 86.8%
viability, T/C [21]: 55.1%
viability, T/C [22]: 51.5%
viability, T/C [23]: 30.4%
viability, T/C [24]: 11.2%
viability, T/C [25]: 111%
viability, T/C [26]: 109%
viability, T/C [27]: 99.2%
viability, T/C [28]: 96.1%
viability, T/C [29]: 64.2%
viability, T/C [30]: 16.4%
